How the values were obtained:
[1] = system: HNES cells; assay: Colony formation of HNES cells in 2-deoxyglucose; format: cell-based, human; settings: HNES cells versus HNES-primed cells
From the text: Primed PSC rely on anaerobic glycolysis with very low mitochondrial respiration capacity (Zhou et al., 2012). […] We evaluated the capacity of HNES cells to form colonies in the presence of the glycolysis inhibitor 2-deoxyglucose. […] HNES cells also stained intensely with MitoProbe™ DilC1, reflecting mitochondrial membrane potential (not shown).

[2] = system: reset cells and conventional PSC; assay: Proliferation / colony formation in 2-deoxyglucose; format: cell-based, human; settings: reset cells in contrast to conventional PSC, 7 days
Protocol: C & D. Proliferation in 2-deoxyglucose. After single cell dissociation, 3×10^4 cells were seeded on 12 wells and cultured for 7 days with indicated concentrations of 2-deoxyglucose (2DG) or reduced glucose. ROCKi was added to conventional PSC.
We examined functional consequences of altered metabolic properties by culture in 2-deoxyglucose to inhibit glycolysis and in reduced concentrations of glucose to increase dependency on mitochondrial respiration.

O=CC[C@@H](O)[C@H](O)[C@H](O)CO [2-deoxyglucose]
colony formation in the presence of 2-deoxyglucose [1]: Undifferentiated HNES cells readily formed colonies while HNES-primed cells did not survive | colony formation in the presence of 2-deoxyglucose [2]: reset cells formed undifferentiated colonies

Reference: US10894948B2, “Resetting pluripotent stem cells” (CAMBRIDGE ENTERPRISE LIMITED, priority 2014, dated 2021)
